The text below walks through data of patent US9708259B2 (Hoffmann-La Roche Inc., priority 2013, dated 2017).

The term EC50 denotes the concentration that produces a half-maximal response.

One assay deals with T1, human M1 (Homo sapiens, UniProt P11229).
T1 construct: expressed in transfected cells; host or cells: CHO cells
T1 sequence (P11229 1-460): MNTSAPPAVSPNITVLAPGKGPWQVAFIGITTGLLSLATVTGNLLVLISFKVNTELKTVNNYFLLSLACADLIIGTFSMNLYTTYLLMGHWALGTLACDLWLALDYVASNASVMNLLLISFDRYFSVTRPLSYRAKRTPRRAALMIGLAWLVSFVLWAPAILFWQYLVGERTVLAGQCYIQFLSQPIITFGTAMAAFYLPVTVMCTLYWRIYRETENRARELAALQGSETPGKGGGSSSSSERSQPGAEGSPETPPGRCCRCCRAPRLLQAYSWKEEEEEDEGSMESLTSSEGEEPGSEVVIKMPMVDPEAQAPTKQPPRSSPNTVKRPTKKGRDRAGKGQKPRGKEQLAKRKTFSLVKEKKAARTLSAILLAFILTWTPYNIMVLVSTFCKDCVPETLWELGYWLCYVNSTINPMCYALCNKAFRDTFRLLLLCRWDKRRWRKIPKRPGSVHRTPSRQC
Put plainly: M1 PAM assay (FLIPR intracellular calcium), human M1. In kind it is cell-based. An outline of the steps: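 CHO cells expressing M1, Fluo-4AM-loaded, in HEPES/probenecid HBSS pH 7.4, 1% DMSO final. Compounds pre-incubated 2 min for agonist activity versus 30 nM acetylcholine control. For PAM activity, acetylcholine EC20 added after the 2 min pre-incubation, then 2 min more before FLIPR intracellular Ca2+ read.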
(In general: Calcium flux is commonly read through the fluorescence of an indicator in the cells.)

Another assay concerns the target T2, ratM1 (Rattus norvegicus, UniProt P08482).
T2 construct: expressed in transfected cells; host or cells: CHO cells (stated generally for the assay, not specifically for rat M1)
T2 sequence (P08482 1-460): T1 sequence (P11229 1-460) with A5V, T254S, P309S, R320K, A337G, I413V
Nature of the assay: M1 PAM assay (FLIPR intracellular calcium), rat M1. In kind it is cell-based.

Setting [1] is: CHO human M1 cells, FLIPR Ca2+, with EC20 of acetylcholine, first value of the cell, read-out: hM1 EC50.
The mark [2] stands for this setting: rat M1, FLIPR Ca2+, second value of the cell, read-out: ratM1 EC50.

Where a chain is given by its changes, count along the chain named. Read-outs that look alike come from different tables or passages of the source.

On to `Cn1ncc2cc(Cn3cc(C(=O)NC4CCOCC4)c4c(F)ccc(F)c43)ccc21` [Example 94, 4,7-difluoro-1-((1-methyl-1H-indazol-5-yl)methyl)-N-(tetrahydro-2H-pyran-4-yl)-1H-indole-3-carboxamide], for which the concentration giving a half-maximal response (EC50) at human M1 is 66 nM; at ratM1 it was 141 nM.
For the molecule `NC(=O)c1ccc(Cn2cc(C(=O)N[C@H]3CCOC[C@@H]3O)c3c(F)cccc32)cc1` (racemic) [Example 15, 1-(4-carbamoylbenzyl)-4-fluoro-N-((3RS,4SR)-3-hydroxytetrahydro-2H-pyran-4-yl)-1H-indole-3-carboxamide], the EC50 on human M1 (setting [1]) was 12.4 nM; on ratM1 (setting [2]), 9.61 nM.
Take `Cn1cc(-c2ccc(Cn3cc(C(=O)N[C@H]4CCOC[C@@H]4O)c4c(F)ccc(C5CC5)c43)c(F)c2)cn1` [Example 107, 7-cyclopropyl-4-fluoro-1-(2-fluoro-4-(1-methyl-1H-pyrazol-4-yl)benzyl)-N-((3R,4S)-3-hydroxytetrahydro-2H-pyran-4-yl)-1H-indole-3-carboxamide]: the results for the 50% effective concentration (EC50) at human M1 (setting [1]) and at ratM1 (setting [2]) were 482 nM and 767 nM, respectively.
On to `COc1ccc(F)c2c(C(=O)N[C@H]3CCCC[C@@H]3O)cn(Cc3ccc(-c4cnn(C)c4)cc3F)c12` [Example 149, 4-fluoro-1-(2-fluoro-4-(1-methyl-1H-pyrazol-4-yl)benzyl)-N-((1S,2S)-2-hydroxycyclohexyl)-7-methoxy-1H-indole-3-carboxamide], for which the half-maximal effective concentration (EC50) on human M1 (setting [1]) stood at 438 nM; on ratM1 (setting [2]), 348 nM.
On to `Cc1ccc(F)c2c(C(=O)NC3CCOCC3)cn(Cc3ccc(-c4cnn(C)c4)cc3)c12` [Example 49, 4-fluoro-7-methyl-1-(4-(1-methyl-1H-pyrazol-4-yl)benzyl)-N-(tetrahydro-2H-pyran-4-yl)-1H-indole-3-carboxamide], for which the values for the EC50 on human M1 (setting [1]) and at ratM1 (setting [2]) were 44.5 nM and 52.5 nM, respectively.
In the case of `Cn1cc(-c2ccc(Cn3cc(C(=O)NC4CCOCC4)c4c(F)ccc(F)c43)cc2)cn1` [Example 95, 4,7-difluoro-1-(4-(1-methyl-1H-pyrazol-4-yl)benzyl)-N-(tetrahydro-2H-pyran-4-yl)-1H-indole-3-carboxamide], the results for the EC50 at human M1 (setting [1]) and at ratM1 (setting [2]) were 27 nM and 50 nM, respectively.
Taken in the same sequence, the figures for `NC(=O)c1ccc(Cn2cc(C(=O)N[C@H]3CCCC[C@@H]3O)c3c(F)cccc32)cc1` [Example 77, 1-(4-carbamoylbenzyl)-4-fluoro-N-((1S,2S)-2-hydroxycyclohexyl)-1H-indole-3-carboxamide] were 2.21 nM and 2.47 nM.
In the case of `Cn1cc(-c2ccc(Cn3cc(C(=O)N[C@H]4CCCC[C@@H]4O)c4c(F)cccc43)c(F)c2)cn1` [Example 1], the EC50 was determined as 5.64 nM at human M1 (setting [1]) and 62.6 nM at ratM1 (setting [2]).
For `Cn1cc(-c2ccc(Cn3cc(C(=O)N[C@H]4CCOC[C@@H]4O)c4c(F)cccc43)cc2)cn1` (single isomer, unassigned) [Example 55, 4-fluoro-N-((3R,4S) or (3S,4R)-3-hydroxytetrahydro-2H-pyran-4-yl)-1-(4-(1-methyl-1H-pyrazol-4-yl)benzyl)-1H-indole-3-carboxamide], the EC50 turned out to be 2.11 nM on human M1 (setting [1]) and 2.82 nM at ratM1 (setting [2]).
Taken in the same sequence, the figures for `O=C(N[C@H]1CCCC[C@@H]1O)c1cn(Cc2ccc(-c3cccnc3)cc2)c2cccc(F)c12` [Example 159, 4-Fluoro-N-((1S,2S)-2-hydroxycyclohexyl)-1-(4-(pyridin-3-yl)benzyl)-1H-indole-3-carboxamide] were 20 nM and 47 nM.
Turning to `CNC(=O)c1ccc(Cn2cc(C(=O)NC3CCCC(F)(F)C3)c3c(F)cccc32)cc1` (stereo not drawn) [Example 118, N-(3,3-difluorocyclohexyl)-4-fluoro-1-[[4-(methylcarbamoyl)phenyl]methyl]indole-3-carboxamide], the EC50 at human M1 (setting [1]) was determined as 9 nM; at ratM1 (setting [2]) it was 29 nM.
`CCc1ccc(F)c2c(C(=O)NC3CCOCC3)cn(Cc3ccc4c(cnn4C)c3)c12` [Example 128, 7-ethyl-4-fluoro-1-((1-methyl-1H-indazol-5-yl)methyl)-N-(tetrahydro-2H-pyran-4-yl)-1H-indole-3-carboxamide]: the 50% effective concentration (EC50) on human M1 was 289 nM; on ratM1, 1240 nM.
For the molecule `Cn1cc(-c2ccc(Cn3cc(C(=O)N[C@@H]4CCOC[C@H]4O)c4c(F)cccc43)c(F)c2)cn1` (single isomer, unassigned) [Example 70, 4-Fluoro-1-(2-fluoro-4-(1-methyl-1H-pyrazol-4-yl)benzyl)-N-((3S,4R) or (3R,4S)-3-hydroxytetrahydro-2H-pyran-4-yl)-1H-indole-3-carboxamide], the EC50 stood at 102 nM on human M1 (setting [1]) and 284 nM at ratM1 (setting [2]).
As for `Cn1cc(-c2ccc(Cn3cc(C(=O)NCC4(O)CC4)c4c(F)cccc43)c(F)c2)cn1` [Example 97, 4-fluoro-1-(2-fluoro-4-(1-methyl-1H-pyrazol-4-yl)benzyl)-N-((1-hydroxycyclopropyl)methyl)-1H-indole-3-carboxamide], the concentration for a half-maximal effect (EC50) came out at 465 nM at human M1 (setting [1]) and 1890 nM at ratM1 (setting [2]).
Taken in the same sequence, the figures for `O=C(N[C@H]1CCCC[C@@H]1O)c1cn(CC2CCN(c3ccncn3)CC2)c2cccc(F)c12` [Example 143, 4-fluoro-N-((1S,2S)-2-hydroxycyclohexyl)-1-((1-(pyrimidin-4-yl)piperidin-4-yl)methyl)-1H-indole-3-carboxamide] were 409 nM and 1070 nM.
For the molecule `Cn1cc(-c2ccc(Cn3cc(C(=O)NC4CC(F)(F)C4)c4c(F)cccc43)cc2)cn1` [Example 9, N-(3,3-difluorocyclobutyl)-4-fluoro-1-(4-(1-methyl-1H-pyrazol-4-yl)benzyl)-1H-indole-3-carboxamide], the concentration for a half-maximal effect (EC50) at human M1 (setting [1]) turned out to be 365 nM; at ratM1 (setting [2]) it was 411 nM.
Taken in the same sequence, the figures for `Cn1cc(-c2ccc(Cn3cc(C(=O)N[C@H]4CCOC[C@@H]4O)c4c(F)cccc43)c(F)c2)cn1` (single isomer, unassigned) [Example 71, 4-Fluoro-1-(2-fluoro-4-(1-methyl-1H-pyrazol-4-yl)benzyl)-N-((3R,4S) or (3S,4R)-3-hydroxytetrahydro-2H-pyran-4-yl)-1H-indole-3-carboxamide] were 5.92 nM and 12 nM.
As to `CNC(=O)c1ccc(Cn2cc(C(=O)N[C@H]3CCCC[C@@H]3O)c3c(F)cccc32)cc1` [Example 59, 4-fluoro-N-((1S,2S)-2-hydroxycyclohexyl)-1-(4-(methylcarbamoyl)benzyl)-1H-indole-3-carboxamide], the EC50 on human M1 (setting [1]) was 4.33 nM; on ratM1 (setting [2]), 4.35 nM.
Turning to `Cn1cc(-c2ccc(Cn3cc(CC(=O)N[C@H]4CCOC[C@@H]4O)c4c(F)cccc43)c(F)c2)cn1` [Example 92, 2-[4-Fluoro-1-[[2-fluoro-4-(1-methylpyrazol-4-yl)phenyl]methyl]indol-3-yl]-N-[(3R,4S)-3-hydroxyoxan-4-yl]acetamide], the 50% effective concentration (EC50) turned out to be 35 nM on human M1 (setting [1]) and 57 nM at ratM1 (setting [2]).
For the molecule `CCc1ccc(F)c2c(C(=O)NC3CCOCC3)cn(Cc3ccc(-c4cnn(C)c4)cc3)c12` [Example 108, 7-ethyl-4-fluoro-1-(4-(1-methyl-1H-pyrazol-4-yl)benzyl)-N-(tetrahydro-2H-pyran-4-yl)-1H-indole-3-carboxamide], the EC50 at human M1 (setting [1]) is 414 nM; on ratM1 (setting [2]) it was 952 nM.
Taken in the same sequence, the figures for `CNC(=O)c1ccc(Cn2cc(C(=O)NC3CCCCCC3)c3c(F)cccc32)cc1` [Example 115, N-cycloheptyl-4-fluoro-1-[[4-(methylcarbamoyl)phenyl]methy]indole-3-carboxamide] were 50 nM and 28 nM.
